The values below come from US9539219B2, “Pharmaceutical compositions of carotenoid chylomicrons” (HEALTH-EVER BIOTECH CO. LTD, priority 2013, dated 2017).

Series [1] is described as follows: Pharmacokinetic study of the chylomicron and micelle compositions in rats (gavage and i.v.). The class given is in vivo, male Sprague-Dawley rats. The following applies: rat. As for the experimental part: The pharmacokinetic properties of the pharmaceutical composition prepared in Example 1 and the pharmaceutical composition prepared in Example 2 were assessed in male Sprague-Dawley rats.
A total of 24 rats (all rats with body weight of about 280 g each) were divided into two groups with 12 each, one received oral administration (gavage) while the other received intravenous (i.v.) injection.
The pharmaceutical composition in Example 1 and the pharmaceutical composition in Example 2 were administered via gavage and intravenous (IV) injection. An equivalent of 1.43 mg/kg of solanorubin was given by IV route (one-tenth of oral dosage) and an equivalent of 14.3 mg/kg of solanorubin was administered orally.
Blood samples were collected via the tail vein of the rats at the following time intervals: 2 minutes, 5 minutes, 10 minutes, 30 minutes, 1 hour, 2 hours, 4 hours, 8 hours, 24 hours, 48 hours and 72 hours after the composition was administered.
Pharmacokinetic study was carried out using the WinNonlin software system (Pharsight Co, Mountain View, Calif., USA) by non-compartmental model. The area under the drug concentration-time curve (AUC) was used to determine total amount of all-trans-solanorubin, cis-solanorubin, octohydrogenosolanorubin and hexahydrogenosolanorubin to reach the systematic circulation. Some other kinetic parameters such as Cmax, Tmax, and t1/2 were measured as well. The absolute bioavailability of trans-solanorubin, cis-solanorubin, octohydrogenosolanorubin and hexahydrogenosolanorubin was calculated using the following formula: […]
All the data were subjected to analysis of variance and Duncan's multiple range test using Statistical Analysis Software (SAS)^16 for statistical significance at P<0.05.

Series [2] can be described thus: Stability at pH 2.0, 3.5, 6.0, 6.8 and 7.4. It is filed as physicochemical. The following applies: pH 2.0, 3.5, 6.0, 6.8 and 7.4 for 1, 2, 4, 6, 12 or 24 h; for Change in concentration in micelles at different pH: micelle. As for the experimental part:
(§1) Likewise, when chylomicron was stored at pH 2.0, 3.5, 6.0, 6.8 and 7.4 for 1, 2, 4, 6, 12 or 24 h, the stability of solanorubin, octohydrogenosolanorubin and hexahydrogenosolanorubin was maintained. The encapsulation efficiency of solanorubin in chylomicron was assessed to be approximately 80%.
(§2) The average size of the micelle, based on DLS and TEM analyses, was approximately 7.5 nm, with spherical shape and transparent appearance. […] Also, the mean values of solanorubin, octohydrogenosolanorubin and hexahydrogenosolanorubin were ranged from 0.34-0.38 mg/mL, 0.03-0.04 mg/mL and 0.03-0.04 mg/mL, respectively, during storage or heating under the same condition. […] The encapsulation efficiency of solanorubin in micelle was determined to be about 78%.

The nature of series [3]: Stability during storage at 4° C. or 25° C. for 3 months or heating at 100° C. for 4 h. The class given is physicochemical. The settings on record: 4° C. or 25° C. for 3 months or 100° C. for 4 h. As to the method: as §1, §2
A further series is described as follows: Encapsulation efficiency. It is filed as physicochemical. As to the method:
as §1, §2

The conditions of series [4]: cited from earlier work.
The conditions of series [5]: rat, Faisal et al. J. Pharm. Pharmacol. 2010, cited from earlier work.
The nature of series [6]: Pre-experiments on saturation of absorption (dose selection). The class given is in vivo. The settings on record: several pre-experiments.
[7] abbreviates: male, Sprague-Dawley, in vivo, po, 14.3 mg/kg.

Read-outs that look alike come from different tables or passages of the source.

For the compound `CC(C)=CCCC(C)=CCCC(C)=CC=CC(C)=CC=CC=C(C)CCC=C(C)CCC=C(C)CCC=C(C)C` [Hexahydrogenosolanorubin, hexahydrogenosolanorubin], in series [1] (in vivo, iv, 1.43 mg/kg), the “AUC higher for IV administered micelle composition compared to IV administered chylomicron composition (difference)” value was found to be 544 µg·min/mL; the “Cmax of IV administered micelle composition, fold higher than IV administered chylomicron composition” value was determined as 9.6 fold; the time of peak concentration (Tmax) was determined as 2 min. Further, in series [2], the “Change in concentration in micelles at different pH” value (shortened to “Change … at different pH”) is “only a minor change”.
Take `CC(C)=CCC/C(C)=C/CC/C(C)=C/CC/C(C)=C/C=C/C=C(\C)CC/C=C(\C)CC/C=C(\C)CCC=C(C)C` [Octohydrogenosolanorubin, octohydrogenosolanorubin]: in series [1] (in vivo, iv, 1.43 mg/kg), the “AUC higher for IV administered micelle composition compared to IV administered chylomicron composition (difference)” value amounted to 311 µg·min/mL and the “Cmax of IV administered micelle composition, fold higher than IV administered chylomicron composition” value was found to be 5.9 fold. The compound also came in with a Cmax in series [1] (in vivo, po, 14.3 mg/kg) of 0.06 µg/mL. For the same compound, in series [2], the “Change … at different pH” value was “only a minor change”.
As to `CC(C)=CCC/C(C)=C/C=C/C(C)=C/C=C/C(C)=C/C=C/C=C(C)/C=C/C=C(C)/C=C/C=C(\C)CCC=C(C)C` [Solanorubin, solanorubin], the “Cmax of IV administered micelle composition, fold higher than IV administered chylomicron composition” value in series [1] (IV 1.43 mg/kg BW) is recorded as 7.8 fold. Moreover, the AUC is 3380 ng·h/mL in series [1] (male, Sprague-Dawley, in vivo, IV 1.43 mg/kg BW, read-out: AUC higher for IV administered micelle composition compared to IV administered chylomicron composition (difference) (converted)); 12200 ± 1400 ng·h/mL in series [1] (male, Sprague-Dawley, in vivo, iv, 1.43 mg/kg); 8830 ng·h/mL in series [1] (male, Sprague-Dawley, in vivo, iv, 1.43 mg/kg, AUC); 8380 ng·h/mL in series [1] (setting [7]); 8270 ng·h/mL in series [1] (male, Sprague-Dawley, in vivo, po, 14.3 mg/kg, AUC). The bioavailability in series [1] (male, Sprague-Dawley, in vivo, 14.3 mg/kg) amounted to 9.5%; in series [1] (male, Sprague-Dawley, in vivo, 14.3 mg/kg, Bioavailability), 6.8%. The Tmax in series [1] (male, Sprague-Dawley, in vivo, iv, 1.43 mg/kg, Tmax) is 2 min; in series [1] (setting [7]), 240 min; in series [1] (male, Sprague-Dawley, in vivo, po, 14.3 mg/kg, Tmax), 120 min. Moreover, the Cmax was 0.18 µg/mL in series [1] (setting [7]) and 0.27 µg/mL in series [1] (male, Sprague-Dawley, in vivo, po, 14.3 mg/kg, Cmax). In addition, in series [1] (setting [7]), the t1/2 worked out at 2018 ± 326 min. In addition, in series [1] (male, Sprague-Dawley, in vivo, po, 14.3 mg/kg, t1/2), the half-life was found to be 1730 ± 198 min. For the same compound, in series [3] (chylomicron), the “Stability of the carotenoid in chylomicron (change in concentration)” value is “high stability”. The “Mean concentration during storage or heating” value in series [3] (micelle) fell in the range of 0.34 to 0.38 mg/mL. Besides, the “Stability of the carotenoid in chylomicron at different pH” value in series [2] (chylomicron) was “maintained”. For the same compound, the “Change … at different pH” value in series [2] is “only a minor change”. Also, the Encapsulation efficiency result is recorded as “approximately 80%” in “Encapsulation efficiency” (solanorubin in chylomicron) and “about 78%” in “Encapsulation efficiency” (solanorubin in micelle). Besides, the values for the Solubility in water result in series [4] and in series [4] (listed as solanorubin) were “insoluble in water” and “practically insoluble in water”, respectively. Besides, the “Bioavailability of solanorubin not encapsulated / from natural sources” value in series [5] is on record as “about 1.85%”; in series [5] (listed as non-encapsulated solanorubin) it was 1.85%.
Consider `CC(C)=CCC/C(C)=C/C=C/C(C)=C/C=C/C(C)=C/C=C/C=C(C)/C=C/C=C(C)/C=C/C=C(\C)CCC=C(C)C` [lycopene], for which, in series [6], the “Dose above which saturation of absorption may occur” value was “higher than 14.3 mg/kg BW”.

Usually Tmax stands for the time from dosing to the highest level. One may read the Cmax as the highest concentration seen after dosing. By AUC is commonly meant the area under the concentration-time curve, a measure of exposure. The term bioavailability denotes dose-corrected exposure relative to a reference, in per cent. As a reminder, the half-life is how long it takes for the measured level to halve. A lower half-life goes with rapid decline.
